Laboratory results as given in ChEMBL document CHEMBL1201862, “PubChem BioAssay data set” (2004).
Active and inactive are the calls of the source. Rule as the data show it: actives have a measured IC50 and inactives only a lower limit.

How the values were obtained:
Assay type in all cases: functional
[1] = target: T1, Sentrin-specific protease 7 (Homo sapiens, UniProt Q9BQF6);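 also: Luminescence-based dose-response confirmation of ultra-high-throughput screening hits, measuring inhibition of SENP7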
T1 sequence (Q9BQF6 whole entry): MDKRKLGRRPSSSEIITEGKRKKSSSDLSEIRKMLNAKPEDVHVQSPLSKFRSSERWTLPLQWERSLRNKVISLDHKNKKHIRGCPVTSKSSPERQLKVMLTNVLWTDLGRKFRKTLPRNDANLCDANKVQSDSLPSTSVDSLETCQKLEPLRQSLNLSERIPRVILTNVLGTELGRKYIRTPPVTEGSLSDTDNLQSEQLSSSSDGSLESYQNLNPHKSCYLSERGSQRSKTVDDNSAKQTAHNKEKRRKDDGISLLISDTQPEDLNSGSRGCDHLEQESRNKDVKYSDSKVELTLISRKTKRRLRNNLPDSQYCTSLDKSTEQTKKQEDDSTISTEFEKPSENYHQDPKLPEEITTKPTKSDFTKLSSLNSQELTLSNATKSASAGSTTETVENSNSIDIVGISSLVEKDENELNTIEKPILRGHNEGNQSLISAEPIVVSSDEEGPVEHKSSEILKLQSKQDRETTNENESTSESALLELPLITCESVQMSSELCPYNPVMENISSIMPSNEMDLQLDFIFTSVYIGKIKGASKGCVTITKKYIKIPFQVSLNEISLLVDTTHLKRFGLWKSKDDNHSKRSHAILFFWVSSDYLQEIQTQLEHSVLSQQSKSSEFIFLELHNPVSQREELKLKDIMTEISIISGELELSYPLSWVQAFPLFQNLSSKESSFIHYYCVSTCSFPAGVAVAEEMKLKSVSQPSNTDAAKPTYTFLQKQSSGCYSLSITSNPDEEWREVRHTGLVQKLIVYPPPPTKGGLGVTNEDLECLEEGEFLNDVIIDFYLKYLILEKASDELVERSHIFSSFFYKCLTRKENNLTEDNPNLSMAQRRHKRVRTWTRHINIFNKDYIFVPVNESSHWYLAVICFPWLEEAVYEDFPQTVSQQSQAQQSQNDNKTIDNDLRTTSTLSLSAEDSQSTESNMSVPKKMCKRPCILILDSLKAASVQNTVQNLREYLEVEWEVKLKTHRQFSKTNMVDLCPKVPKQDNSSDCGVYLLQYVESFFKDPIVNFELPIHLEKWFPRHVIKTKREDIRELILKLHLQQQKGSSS

[2] = target: T2, Apoptotic protease-activating factor 1 (Homo sapiens, UniProt O14727)
T2 sequence (O14727 whole entry): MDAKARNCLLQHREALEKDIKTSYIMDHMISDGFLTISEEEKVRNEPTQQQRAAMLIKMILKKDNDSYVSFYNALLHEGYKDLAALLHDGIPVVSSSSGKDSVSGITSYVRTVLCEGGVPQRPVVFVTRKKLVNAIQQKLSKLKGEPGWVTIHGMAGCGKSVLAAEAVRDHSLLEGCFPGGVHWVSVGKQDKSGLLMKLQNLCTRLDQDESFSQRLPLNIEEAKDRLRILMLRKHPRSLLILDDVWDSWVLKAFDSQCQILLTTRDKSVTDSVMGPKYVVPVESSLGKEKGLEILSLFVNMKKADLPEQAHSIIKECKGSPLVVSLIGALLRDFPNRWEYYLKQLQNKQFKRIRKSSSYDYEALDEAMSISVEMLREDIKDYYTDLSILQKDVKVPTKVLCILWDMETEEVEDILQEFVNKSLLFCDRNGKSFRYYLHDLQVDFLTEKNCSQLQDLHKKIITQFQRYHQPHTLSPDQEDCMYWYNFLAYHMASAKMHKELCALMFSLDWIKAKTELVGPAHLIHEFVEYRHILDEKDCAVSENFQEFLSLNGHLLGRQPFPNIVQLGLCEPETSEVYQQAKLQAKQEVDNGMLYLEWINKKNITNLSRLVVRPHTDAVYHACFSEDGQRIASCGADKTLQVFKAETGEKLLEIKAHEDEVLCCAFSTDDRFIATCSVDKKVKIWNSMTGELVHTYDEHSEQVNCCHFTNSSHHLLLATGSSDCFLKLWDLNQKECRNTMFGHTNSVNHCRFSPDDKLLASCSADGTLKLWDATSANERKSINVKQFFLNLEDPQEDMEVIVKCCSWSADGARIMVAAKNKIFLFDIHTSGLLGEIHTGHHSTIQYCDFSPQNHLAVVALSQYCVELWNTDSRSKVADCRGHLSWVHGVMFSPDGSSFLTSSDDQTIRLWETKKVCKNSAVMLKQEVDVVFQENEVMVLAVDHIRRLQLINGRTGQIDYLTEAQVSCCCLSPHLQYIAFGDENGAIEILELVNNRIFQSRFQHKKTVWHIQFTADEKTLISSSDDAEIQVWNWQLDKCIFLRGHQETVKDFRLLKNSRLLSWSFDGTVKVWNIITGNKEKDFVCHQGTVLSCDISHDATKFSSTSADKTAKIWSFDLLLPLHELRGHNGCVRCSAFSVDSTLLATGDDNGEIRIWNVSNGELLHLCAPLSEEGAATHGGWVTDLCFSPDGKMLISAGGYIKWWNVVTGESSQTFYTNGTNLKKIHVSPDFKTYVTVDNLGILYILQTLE

Caspase-3 = target: T3, Caspase-3 (Homo sapiens, UniProt P42574);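 also: Dose-response selectivity test against caspase-3 for candidate inhibitors of sentrin-specific proteases (SENPs)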
T3 sequence (P42574 whole entry): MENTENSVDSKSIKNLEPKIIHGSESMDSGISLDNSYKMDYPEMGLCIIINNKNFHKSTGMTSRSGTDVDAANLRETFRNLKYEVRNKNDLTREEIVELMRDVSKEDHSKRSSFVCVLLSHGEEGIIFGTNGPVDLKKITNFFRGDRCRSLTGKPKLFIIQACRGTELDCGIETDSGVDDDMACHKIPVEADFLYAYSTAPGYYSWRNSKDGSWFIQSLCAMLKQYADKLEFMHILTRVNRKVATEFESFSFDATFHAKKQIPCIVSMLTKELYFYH

Measured: IC50

CC(C)n1cnc2c(NCc3ccccc3)cc(OCC3CCN(C)CC3)cc21
active: [1] 5.65 µM | [2] 6.63 µM | Caspase-3 7.82 µM

CC(C)N(C(=O)Nc1ccc2nsnc2c1)C(C)C
active: [1] 3.49 µM | [2] 6.61 µM | Caspase-3 5.81 µM

NS(=O)(=O)c1ccc(NC2=CC(=O)C(=O)c3ccccc32)cc1
active: [1] 7.93 µM | [2] 2.08 µM | Caspase-3 9.75 µM
